Experimental data from article PMC8751651 (ACS Omega, 2021).
Entries after “also recorded” stand apart in the source; their conditions may differ. Where a SMILES comes first, the peptide text is derived from it. Where no end group is shown, it is not given here. The star is where a group is joined. Biotin = O=C1N[C@H]2[C@H](CS[C@H]2CCCCC(=O)*)N1

Legend:
[1] = system: influenza A virus; format: binding
[2] = system: inactivated SARS-CoV-2 virus; format: binding, SARS-CoV-2 (Isolate: USA-WA1/2020)
[3] = target: T1, SARS-CoV-2 RBD protein (Severe acute respiratory syndrome coronavirus 2, UniProt P0DTC2); format: binding
[4] = target: T1, SARS-CoV-2 RBD protein; format: binding; remark: listed apart in the source

| Molecule | gold nanoparticles on magnetic beads (TEM) [1] | binding to inactivated virus [2] | gold nanoparticles on magnetic beads (TEM) [2] | SPR binding curves / binding efficiency [3] | SPR binding [4] |
| --- | --- | --- | --- | --- | --- |
| CC(C)C[C@H](NC(=O)[C@H](Cc1ccccc1)NC(=O)[C@H](CC(=O)O)NC(=O)[C@H](Cc1ccccc1)NC(=O)[C@H](CS)NC(=O)[C@H](CO)NC(=O)CCCC[C@@H]1SC[C@@H]2NC(=O)N[C@@H]21)C(=O)N[C@@H](CC(N)=O)C(=O)N[C@@H](Cc1c[nH]c2ccccc12)C(=O)N[C@@H](C)C(=O)N[C@@H](CO)C(=O)N[C@@H](CS)C(=O)N[C@@H](CC(=O)O)C(=O)NCC(=O)NCC(=O)NCC(=O)N[C@@H](CO)C(=O)O [peptide 1] (Biotin-SCFDFLNWASCDGGGS-OH; C-terminus assumed) | no gold nanoparticles are observed bound to the surface | can specifically bind to the SARS-CoV-2 virus | gold nanoparticles (dashed red circle) have conjugated onto the magnetic beads; also recorded: gold nanoparticles are observed on the magnetic beads | can efficiently bind to the SARS-CoV-2 RBD protein; also recorded: highest binding efficiency | significant binding |
| Biotin-SCFDFLNWASCDGGGS (cysteine pairing not given here) [Biotinylated peptide 1] | – | – | gold nanoparticles (dashed red circle) have conjugated onto the magnetic beads | – | – |
